Measurements: patent US11149054B2, “Oxysterols and methods of use thereof” (Sage Therapeutics, Inc., priority 2016, dated 2021)
Read-outs that look alike come from different tables or passages of the source.

Columns and labels:
[1] = molecular target: GlunN1/GluN2A glutamate receptors (Homo sapiens (Human), UniProt Q05586+Q12879); test: Whole-cell patch clamp of mammalian cells (Ionworks Barracuda), positive allosteric modulation, GluN1/GluN2A; assay type: cell-based
How it was run: (§1)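 Perforated-patch whole-cell recording, holding −70 mV, −40 mV during application; Cs-based internal pH 7.2, external with 5 mM CaCl2 pH 7.4. Test article pre-applied alone 5 min, then co-applied with EC20 L-glutamate plus 30 μM glycine. EC50 from Hill fit of % activation over the EC20 current.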

[2] = molecular target: GluN2B glutamate receptors (Homo sapiens (Human), UniProt Q05586+Q13224); test: Whole-cell patch clamp of mammalian cells (Ionworks Barracuda), positive allosteric modulation, GluN2B; assay type: cell-based; conditions: for Emax: read-out: Avg Emax 2B (%)
Sequence of GluN2B glutamate receptors (Q13224 27-1484, other chains not shown): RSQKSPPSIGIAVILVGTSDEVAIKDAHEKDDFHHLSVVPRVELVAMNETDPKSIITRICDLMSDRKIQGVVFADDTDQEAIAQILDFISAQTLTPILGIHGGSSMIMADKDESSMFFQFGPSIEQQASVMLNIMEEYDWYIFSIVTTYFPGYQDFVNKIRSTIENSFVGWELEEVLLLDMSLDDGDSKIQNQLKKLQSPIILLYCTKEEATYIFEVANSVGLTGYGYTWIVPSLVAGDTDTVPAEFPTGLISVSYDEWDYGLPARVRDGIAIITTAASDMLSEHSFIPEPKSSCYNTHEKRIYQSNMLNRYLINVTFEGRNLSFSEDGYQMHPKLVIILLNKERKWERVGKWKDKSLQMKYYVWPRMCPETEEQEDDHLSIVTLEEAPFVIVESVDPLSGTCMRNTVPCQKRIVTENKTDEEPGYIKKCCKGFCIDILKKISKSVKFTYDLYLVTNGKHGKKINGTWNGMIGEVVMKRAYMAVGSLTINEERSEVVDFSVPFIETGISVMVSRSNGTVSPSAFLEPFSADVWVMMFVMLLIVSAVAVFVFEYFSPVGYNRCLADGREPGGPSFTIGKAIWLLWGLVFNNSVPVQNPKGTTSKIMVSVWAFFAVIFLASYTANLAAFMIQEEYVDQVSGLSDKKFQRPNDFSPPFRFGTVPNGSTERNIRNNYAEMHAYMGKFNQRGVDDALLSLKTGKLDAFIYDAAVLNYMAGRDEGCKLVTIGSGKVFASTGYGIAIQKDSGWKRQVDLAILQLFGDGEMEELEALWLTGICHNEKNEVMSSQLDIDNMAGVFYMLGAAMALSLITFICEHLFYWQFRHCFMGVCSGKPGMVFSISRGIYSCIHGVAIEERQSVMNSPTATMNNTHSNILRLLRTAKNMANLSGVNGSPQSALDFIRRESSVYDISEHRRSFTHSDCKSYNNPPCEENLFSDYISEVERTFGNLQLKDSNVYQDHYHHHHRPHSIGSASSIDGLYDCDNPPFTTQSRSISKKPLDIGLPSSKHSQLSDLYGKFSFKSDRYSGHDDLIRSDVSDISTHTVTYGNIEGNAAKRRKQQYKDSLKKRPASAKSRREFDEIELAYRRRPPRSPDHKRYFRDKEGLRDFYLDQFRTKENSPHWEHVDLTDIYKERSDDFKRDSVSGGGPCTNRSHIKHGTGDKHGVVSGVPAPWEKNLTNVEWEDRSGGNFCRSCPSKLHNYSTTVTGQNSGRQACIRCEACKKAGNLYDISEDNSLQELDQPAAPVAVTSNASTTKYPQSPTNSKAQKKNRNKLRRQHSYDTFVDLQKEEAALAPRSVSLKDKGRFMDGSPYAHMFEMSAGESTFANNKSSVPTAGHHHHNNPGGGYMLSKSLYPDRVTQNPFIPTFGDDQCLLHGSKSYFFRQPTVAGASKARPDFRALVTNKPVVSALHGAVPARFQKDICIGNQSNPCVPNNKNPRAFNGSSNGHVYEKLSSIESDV
How it was run: as §1

[3] = HEK293 cells, % potentiation of current elicited with EC20 L-glutamate and 30 μM glycine, read-out: Avg Emax 2A (%)
[4] = % potentiation of current elicited with EC20 L-glutamate and 30 μM glycine
[5] = HEK293, read-out: Avg Emax 2A (%)
[6] = HEK293 cells, co-application with EC20 L-glutamate and 30 μM glycine, 8-point concentration-response, read-out: Avg EC50 2A
[7] = co-application with EC20 L-glutamate and 30 μM glycine, 8-point concentration-response, read-out: Avg EC50 2B

Sequence of GlunN1/GluN2A glutamate receptors (Q12879 23-1464, other chains not shown): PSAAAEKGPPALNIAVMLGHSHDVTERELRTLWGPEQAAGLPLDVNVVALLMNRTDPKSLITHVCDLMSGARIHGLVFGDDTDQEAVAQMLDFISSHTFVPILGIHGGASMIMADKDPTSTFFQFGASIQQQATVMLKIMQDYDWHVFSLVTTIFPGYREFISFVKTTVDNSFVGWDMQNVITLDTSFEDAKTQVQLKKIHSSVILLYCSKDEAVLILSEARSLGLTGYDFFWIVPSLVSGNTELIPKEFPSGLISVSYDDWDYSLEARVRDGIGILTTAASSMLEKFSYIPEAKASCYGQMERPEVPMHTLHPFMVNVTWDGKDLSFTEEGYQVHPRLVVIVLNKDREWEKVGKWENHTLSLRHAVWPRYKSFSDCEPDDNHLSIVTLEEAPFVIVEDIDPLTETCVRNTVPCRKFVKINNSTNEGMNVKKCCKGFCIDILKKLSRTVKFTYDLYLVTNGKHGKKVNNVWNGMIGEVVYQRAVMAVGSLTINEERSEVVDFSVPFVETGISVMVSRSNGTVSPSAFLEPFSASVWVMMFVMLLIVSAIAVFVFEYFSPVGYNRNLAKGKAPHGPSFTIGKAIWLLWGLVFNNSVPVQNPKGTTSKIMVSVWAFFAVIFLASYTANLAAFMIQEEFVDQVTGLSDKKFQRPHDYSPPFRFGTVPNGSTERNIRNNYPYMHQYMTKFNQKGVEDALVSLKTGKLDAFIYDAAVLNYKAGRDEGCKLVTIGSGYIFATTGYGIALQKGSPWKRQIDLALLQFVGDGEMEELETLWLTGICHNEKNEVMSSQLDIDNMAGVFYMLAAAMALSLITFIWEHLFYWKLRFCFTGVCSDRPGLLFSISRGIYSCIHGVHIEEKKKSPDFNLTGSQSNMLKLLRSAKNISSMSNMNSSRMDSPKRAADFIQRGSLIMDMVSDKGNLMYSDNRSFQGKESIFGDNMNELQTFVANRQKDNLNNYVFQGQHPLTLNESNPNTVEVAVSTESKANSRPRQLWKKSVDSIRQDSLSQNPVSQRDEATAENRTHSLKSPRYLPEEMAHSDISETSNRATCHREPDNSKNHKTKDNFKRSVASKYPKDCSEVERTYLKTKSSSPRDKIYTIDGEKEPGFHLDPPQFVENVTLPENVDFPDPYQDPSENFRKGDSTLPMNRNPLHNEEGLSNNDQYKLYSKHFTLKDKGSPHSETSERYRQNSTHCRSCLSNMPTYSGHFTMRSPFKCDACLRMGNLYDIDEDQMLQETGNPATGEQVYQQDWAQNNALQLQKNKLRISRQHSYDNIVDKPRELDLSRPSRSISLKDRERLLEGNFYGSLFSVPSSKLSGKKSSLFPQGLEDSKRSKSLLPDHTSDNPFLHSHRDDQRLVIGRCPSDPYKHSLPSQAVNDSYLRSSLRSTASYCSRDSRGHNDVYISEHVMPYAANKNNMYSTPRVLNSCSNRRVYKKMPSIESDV

Question: What does the source list for `CCC(O)CC[C@@H](C)[C@H]1CC[C@H]2[C@@H]3CC=C4C[C@](O)(CC)CC[C@@H]4[C@H]3CC[C@]12C` (stereo partly shown) [Compound 8564]?
Answer: EC50 [1]: 469 nM; Emax [1, 3]: 252%; EC50 [2]: 489 nM; Emax [2, 4]: 310%

Question: What does the source list for `CC[C@]1(O)CC[C@@]2(C)C(=CC[C@H]3[C@@H]4CC[C@H]([C@H](C)CC[C@@H](O)c5cccnc5)[C@@]4(C)CC[C@@H]32)C1` [Compound 6459]?
Answer: EC50 [1]: 1330 nM; Emax [1, 3]: 156%; EC50 [2]: 909 nM; Emax [2, 4]: 184%

Question: Which results are given for `CC[C@]1(O)CC[C@@]2(C)C(=CC[C@H]3[C@@H]4CC[C@H]([C@H](C)CC[C@H](O)c5ccccn5)[C@@]4(C)CC[C@@H]32)C1` [Compound 6347]?
Answer: EC50 [1]: 268 nM; Emax [1, 3]: 64.7%; EC50 [2]: 311 nM; Emax [2, 4]: 132%

Question: Which results are given for `CC[C@]1(O)CC[C@@]2(C)C(=CC[C@H]3[C@@H]4CC[C@H]([C@H](C)CCC(O)c5ccccc5)[C@@]4(C)CC[C@@H]32)C1` (stereo partly shown) [Compound 761]?
Answer: EC50 [1]: 476 nM; Emax [1, 3]: 302%; EC50 [2]: 249 nM; Emax [2, 4]: 197%

Question: What does the source list for `C[C@H](O)CC[C@@H](C)[C@H]1CC[C@H]2[C@@H]3CC[C@H]4C[C@](O)(C(F)(F)F)CC[C@]4(C)[C@H]3CC[C@]12C` [Compound 6]?
Answer: EC50 [1]: 248 nM; EC50 [2]: 733 nM

Question: What does the source list for `CC[C@]1(O)CC[C@H]2C(=CC[C@@H]3[C@@H]2CC[C@]2(C)[C@@H]([C@H](C)CCC[C@H](C)O)CC[C@@H]32)C1` [Compound 9911]?
Answer: Emax [1, 3]: 234%; Emax [2, 4]: 326%

Question: Which results are given for `C[C@H](CCC1(O)CCC2(CC1)CC2)[C@H]1CC[C@H]2[C@@H]3CC[C@H]4C[C@](O)(C(F)(F)F)CC[C@]4(C)[C@H]3CC[C@]12C` [Compound 4805]?
Answer: EC50 [1]: 356 nM; Emax [1, 3]: 175%; EC50 [2]: 362 nM; Emax [2, 4]: 129%

Question: How did the EC50 [1] turn out when `CC[C@]1(O)CC[C@@]2(C)C(=CC[C@H]3[C@@H]4CC[C@H]([C@H](C)CC[C@@H](O)c5ccccc5C#N)[C@@]4(C)CC[C@@H]32)C1` [Compound 7399] was run?
Answer: 696 nM

Question: And the Emax [1, 3]?
Answer: 150%

Question: And the EC50 [2]?
Answer: 1580 nM

Question: What about the Emax [2, 4] of the same molecule?
Answer: 180%

Question: `CC[C@]1(O)CC[C@H]2[C@@H](CC[C@@H]3[C@@H]2CC[C@]2(C)[C@@H]([C@H](C)CCC(O)C(C)C)CC[C@@H]32)C1` (stereo partly shown) [Compound 476] was tested. Which EC50 [1] did it give?
Answer: 406 nM

Question: What about the Emax [1, 3] of the same molecule?
Answer: 811%

Question: What about the EC50 [2] of the same molecule?
Answer: 189 nM

Question: What about the Emax [2, 4] of the same molecule?
Answer: 399%

Question: `CC(C)[C@H](O)CCC[C@@H](C)[C@H]1CC[C@H]2[C@@H]3CC[C@H]4C[C@](O)(C(F)(F)F)CC[C@]4(C)[C@H]3CC[C@]12C` [Compound 11828] was tested. Which EC50 [1] did it give?
Answer: 147 nM

Question: What about the Emax [1, 5] of the same molecule?
Answer: 142%

Question: What about the EC50 [2] of the same molecule?
Answer: 76.9 nM

Question: And the Emax [2]?
Answer: 114%

Question: How did the EC50 [1] turn out when `CC[C@@H](O)CCC[C@@H](C)[C@H]1CC[C@H]2[C@@H]3CC=C4C[C@](O)(CC)CC[C@@H]4[C@H]3CC[C@]12C` [Compound 10841] was run?
Answer: > 10000 nM

Question: And the Emax [1, 5]?
Answer: 15.6%

Question: And the EC50 [2]?
Answer: > 10000 nM

Question: What about the Emax [2] of the same molecule?
Answer: 30.1%

Question: `CC[C@]1(O)CC[C@H]2C(=CC[C@@H]3[C@@H]2CC[C@]2(C)[C@@H]([C@H](C)CCC[C@](C)(O)C(F)(F)F)CC[C@@H]32)C1` [Compound 10557] was tested. Which Emax [1, 3] did it give?
Answer: 190%

Question: What about the EC50 [1, 6] of the same molecule?
Answer: 287 nM

Question: What about the Emax [2, 4] of the same molecule?
Answer: 202%

Question: What about the EC50 [2, 7] of the same molecule?
Answer: 192 nM

Question: With `CC[C@]1(O)CC[C@H]2C(=CC[C@@H]3[C@@H]2CC[C@]2(C)[C@@H]([C@H](C)CC[C@@H](O)C(C)(C)C)CC[C@@H]32)C1` [Compound 8379] as the molecule, how does the EC50 [1] read?
Answer: 73.4 nM

Question: What about the Emax [1, 5] of the same molecule?
Answer: 252%

Question: And the EC50 [2]?
Answer: 78.1 nM

Question: And the Emax [2]?
Answer: 359%

Question: With `CC[C@]1(O)CC[C@@]2(C)[C@@H](CC[C@@H]3[C@@H]2CC[C@]2(C)[C@@H]([C@H](C)CC[C@@H](O)c4cccnc4)CC[C@@H]32)C1` [Compound 6755] as the molecule, how does the EC50 [1] read?
Answer: > 10000 nM

Question: What about the Emax [1, 3] of the same molecule?
Answer: 22.8%

Question: What about the EC50 [2] of the same molecule?
Answer: > 10000 nM

Question: What about the Emax [2, 4] of the same molecule?
Answer: 44.2%

Question: What does the source list for `CC[C@]1(O)CC[C@H]2[C@@H](CC[C@@H]3[C@@H]2CC[C@]2(C)[C@@H]([C@H](C)CC[C@H](O)C(C)C)CC[C@@H]32)C1` [Compound 4A77]?
Answer: Emax [1, 3]: 382%; EC50 [1, 6]: 427 nM; Emax [2, 4]: 254%; EC50 [2, 7]: 285 nM

Question: `C[C@H](CC[C@@H](O)C(F)(F)F)[C@H]1CC[C@H]2[C@@H]3CC[C@H]4C[C@](O)(C(F)(F)F)CC[C@]4(C)[C@H]3CC[C@]12C` [Compound 5] was tested. Which EC50 [1] did it give?
Answer: 182 nM

Question: And the Emax [1, 3]?
Answer: 619%

Question: And the EC50 [2]?
Answer: 260 nM

Question: And the Emax [2, 4]?
Answer: 455%

Question: How did the EC50 [1] turn out when `CC[C@]1(O)CC[C@H]2C(=CC[C@@H]3[C@@H]2CC[C@]2(C)[C@@H]([C@H](C)CC[C@H](O)C(C)(C)C)CC[C@@H]32)C1` [Compound 8378] was run?
Answer: 124 nM

Question: And the Emax [1, 5]?
Answer: 195%

Question: What about the EC50 [2] of the same molecule?
Answer: 208 nM

Question: And the Emax [2]?
Answer: 259%

Question: With `CC[C@]1(O)CC[C@H]2C(=CC[C@@H]3[C@@H]2CC[C@]2(C)[C@@H]([C@H](C)CCC4(O)CCC(F)(F)CC4)CC[C@@H]32)C1` [Compound 8708] as the molecule, how does the EC50 [1] read?
Answer: 697 nM

Question: What about the Emax [1, 3] of the same molecule?
Answer: 117%

Question: What about the EC50 [2] of the same molecule?
Answer: 553 nM

Question: And the Emax [2, 4]?
Answer: 243%

Question: For `CC[C@]1(O)CC[C@H]2C(=CC[C@@H]3[C@@H]2CC[C@]2(C)[C@@H]([C@H](C)CCC[C@H](O)C(C)C)CC[C@@H]32)C1` [Compound 10115], which Emax [1, 3] is on record?
Answer: 192%

Question: What about the EC50 [1, 6] of the same molecule?
Answer: 556 nM

Question: And the Emax [2, 4]?
Answer: 226%

Question: What about the EC50 [2, 7] of the same molecule?
Answer: 458 nM

Question: For `CC[C@]1(O)CC[C@H]2C(=CC[C@@H]3[C@@H]2CC[C@]2(C)[C@@H]([C@H](C)CCC[C@@H](O)C(C)(C)C)CC[C@@H]32)C1` [Compound 10042], which EC50 [1] is on record?
Answer: > 10000 nM

Question: What about the Emax [1, 3] of the same molecule?
Answer: 65.9%

Question: What about the EC50 [2] of the same molecule?
Answer: 1880 nM

Question: What about the Emax [2, 4] of the same molecule?
Answer: 113%

Question: What does the source list for `CC[C@]1(O)CC[C@@]2(C)C(=CC[C@H]3[C@@H]4CC[C@H]([C@H](C)CC[C@H](O)c5cccc(C#N)c5)[C@@]4(C)CC[C@@H]32)C1` [Compound 6998]?
Answer: Emax [1, 3]: 338%; EC50 [1, 6]: 358 nM; Emax [2, 4]: 303%; EC50 [2, 7]: 304 nM

Question: `C[C@H](CCC1(O)CCC(F)(F)CC1)[C@H]1CC[C@H]2[C@@H]3CC=C4C[C@](O)(C(F)(F)F)CC[C@]4(C)[C@H]3CC[C@]12C` [Compound 2392] was tested. Which EC50 [1] did it give?
Answer: 104 nM

Question: And the EC50 [2]?
Answer: 47.5 nM

Question: What does the source list for `C[C@H](CCC(C)(C)O)[C@H]1CC[C@H]2[C@@H]3CC=C4C[C@](O)(C(F)(F)F)CC[C@]4(C)[C@H]3CC[C@]12C` [Compound 1839]?
Answer: Emax [1, 3]: 493%; EC50 [1, 6]: 295 nM; Emax [2, 4]: 568%

Question: Which EC50 [1] does the source give for `CC[C@]1(O)CC[C@H]2C(=CC[C@@H]3[C@@H]2CC[C@]2(C)[C@@H]([C@H](C)CCC4(O)CC4)CC[C@@H]32)C1` [Compound 8245] here?
Answer: 525 nM

Question: And the Emax [1, 3]?
Answer: 73%

Question: And the EC50 [2]?
Answer: 268 nM

Question: What about the Emax [2, 4] of the same molecule?
Answer: 120%

Question: How did the Emax [1, 3] turn out when `C[C@H](O)CCC[C@@H](C)[C@H]1CC[C@H]2[C@@H]3CC[C@H]4C[C@](O)(C(F)(F)F)CC[C@]4(C)[C@H]3CC[C@]12C` [Compound 2113] was run?
Answer: 403%

Question: And the Emax [2, 4]?
Answer: 285%

Question: What does the source list for `C[C@H](CC[C@@H](O)C(C)(C)C)[C@H]1CC[C@H]2[C@@H]3CC[C@@H]4C[C@](O)(C(F)(F)F)CC[C@]4(C)[C@H]3CC[C@]12C` [Compound 3788]?
Answer: EC50 [1]: 1320 nM; EC50 [2]: 1120 nM

Question: For `CC(C)[C@H]1CC[C@@](O)(CC[C@@H](C)[C@H]2CC[C@H]3[C@@H]4CC[C@H]5C[C@](O)(C(F)(F)F)CC[C@]5(C)[C@H]4CC[C@]23C)CC1` [Compound 4258], which EC50 [1] is on record?
Answer: 1030 nM

Question: What about the Emax [1, 3] of the same molecule?
Answer: 184%

Question: What about the EC50 [2] of the same molecule?
Answer: 640 nM

Question: And the Emax [2, 4]?
Answer: 242%
